Values joined by “and” are separate entries in the source; they are usually repeats but may differ in a detail not shown here. Identical values can stand only once.
Columns and labels:
10DM24 deoxyribozyme [1] = assay: 10DM24-catalyzed ligation of small-molecule NTP substrate to branch-site adenosine of RNA substrate L with cofactor RΔ; format: biochemical; settings: for krel = kobs,NTP*/kobs,NTP: relative to GTP
Procedure: (§1) General Description of Kinetic Assays. All kinetic assays with the 10DM24 deoxyribozyme and its variants were performed according to established methods (Flynn-Charlebois, et al. (2003) supra; Wang and Silverman (2003) supra). The 5′-^32P-labeled RNA substrate (L for “left-hand substrate”) that provides the branch-site adenosine was the limiting reagent relative to 10DM24 (E) and the truncated cofactor RNA (RΔ; R originally derived from “right-hand substrate”). The ratio L:E:RΔ was 1:10:30, with 0.25 μM 10DM24. The cofactor RΔ was 5′-phosphorylated unless otherwise stated. The RNA substrate L, deoxyribozyme 10DM24 and cofactor RΔ were annealed in 5 mM HEPES, pH 7.5, 15 mM NaCl, 0.1 mM EDTA by heating at 95° C. for 3 minutes and cooling on ice for 5 minutes. The ligation reactions were performed with the appropriate concentration of NTP substrate (0.05-50 mM) at a final buffer concentration of 100 mM CHES, pH 9.0, 150 mM NaCl, 2 mM KCl, and 40-400 mM MgCl2 at 37° C. for up to 5 hours. The combination of 1 mM NTP and 40 mM MgCl2 was defined as “standard incubation conditions”; 10 mM NTP and 150 mM MgCl2 was defined as “enhanced incubation conditions”. At appropriate timepoints, aliquots were removed from the sample, quenched into stop solution (80% formamide, 1× TB [89 mM each Tris and boric acid, pH 8.3], and 50 mM EDTA containing 0.025% bromophenol blue and xylene cyanol) and stored at −20° C. prior to analysis. Samples were separated by 20% denaturing PAGE at 30 W for 115 minutes and imaged with a PHOSPHORIMAGER. The resulting data were fit to the equation yield=Y·(1−e^−kt), where k=kobs and Y=final yield.
Use of Free NTPs as Substrates. It was determined whether 10DM24 could catalyze ligation with free GTP as a substrate (see FIG. 1B), thereby transferring guanosine 5′-monophosphate (GMP) to the branch-site adenosine 2′-hydroxyl group. When RΔ, an oligoribonucleotide cofactor that corresponds to all of the remaining nucleotides of R, was added to 10DM24 along with GTP, ligation was efficient (FIG. 8; 94% yield in 5 hours and kobs 0.034 min^−1 under the standard incubation conditions of 1 mM GTP and 40 mM MgCl2 at pH 9.0, 37° C.). The RNA product with the single added guanosine at the branch-site adenosine was PAGE-purified and the identity confirmed by partial alkaline hydrolysis (50 mM NaHCO3 at 95° C. for 5 minutes) and MALDI mass spectrometry (m/z calcd. 5433, found 5437±5).

[2] = test system: 10DM24-C44T mutant deoxyribozyme; assay: Ligation of NTP substrate with 10DM24 variant in which the terminal P4 nucleotide is changed C→T, cofactor RΔ; format: biochemical; settings: for krel = kobs,NTP*/kobs,NTP: relative to ATP
Procedure: as §1
Focus was then placed on the purine NTPs (GTP, ATP) and their derivatives. When 1 mM ATP was provided as a small molecule substrate in place of GTP using the original 10DM24 sequence and RΔ, no reaction was observed (<1% in 5 hours). […] Furthermore, the kobs increased sixteen-fold to 0.013 min^−1 under enhanced conditions with 10 mM ATP (82% yield in 3 hours).

10DM24 deoxyribozyme [3] = assay: Multiple-turnover ligation of GTP; format: biochemical
Source text: In contrast, upon 10DM24-catalyzed reaction of the oligoribonucleotide 2′-hydroxyl group with the NTP substrate, the binding affinity of the RNA for the deoxyribozyme was not expected to increase substantially. Thus, the capability of the engineered 10DM24 deoxyribozyme to catalyze the multiple-turnover ligation of GTP was examined. The 10DM24 deoxyribozyme was the limiting reagent, with the RNA substrate that provides the branch-site adenosine (L) in 10-fold excess over the deoxyribozyme (L:E:RΔ=10:1:3). The reaction was performed under the standard incubation conditions described herein using 1 mM GTP and 40 mM MgCl2 at 37° C. After 5 hours, the product yield was 50%, corresponding to 5 turnovers. Accordingly, with GTP as substrate, multiple-turnover behavior was shown using an RNA ligase deoxyribozyme.

10DM24 deoxyribozyme [4] = assay: Ligation of GTP or pppGpG in presence of shorter cofactor RΔΔ; format: biochemical
Procedure: It was subsequently shown that a binding site for an NTP cofactor can be located adjacent to the substrate binding site. This was achieved by removing an additional nucleotide from the RΔ cofactor, forming the shorter RΔΔ cofactor which required two added nucleotides to reconstitute the complete P4 region (FIG. 10). The 10DM24-catalyzed ligation reaction of GTP in the presence of the two-nucleotide short cofactor RΔΔ was performed with the 5′-^32P-labeled RNA substrate (L) that provides the branch-site adenosine as the limiting reagent. For kinetic assays, the ratio of L:E:RΔΔ was 1:10:30 with 0.25 μM deoxyribozyme (E). For isolation of the reaction products, the ratio L:E:RΔΔ was 1:2:3 with 1.5 μM deoxyribozyme. The reaction was performed under the enhanced incubation conditions with 20 mM GTP and 150 mM MgCl2 in 100 mM CHES, pH 9.0, 150 mM NaCl, and 2 mM KCl at 37° C. for up to 7 hours. […] Both products were isolated and shown by partial alkaline hydrolysis to be branched with the connectivities A-G and A-GG (where A is the branch-site adenosine).
It was contemplated that the new A-GG product was formed by initial templated but otherwise uncatalyzed synthesis of a GG dinucleotide (i.e., pppGpG) from two GTP molecules, followed by 10DM24-catalyzed branch formation using this dinucleotide. […] The reaction was performed under the enhanced incubation conditions of 20 mM GTP and 150 mM MgCl2. […] The pppGpG dinucleotide was synthesized independently using T7 RNA polymerase (Huang, et al. (1998) supra) and led solely to the A-GG product. Although the pppGpG substrate had Kd,app of >1 mM with RΔΔ, similar to Kd,app for GTP with RΔ, the ligation reaction with pppGpG and RΔΔ had kobs six-fold higher than for the analogous reaction with GTP and RΔ (Table 8).
(§2) Similar experiments were performed using the mutant 10DM24 deoxyribozyme that has CTTT rather than CCTT in the P4 region (FIG. 11). For the DNA-catalyzed ligation of pppGpG, the 5′-^32P-labeled RNA with the branch-site adenosine (L) was incubated with the 10DM24 deoxyribozyme (E) and the cofactor RΔΔ in the ratio of L:E:RΔΔ=1:10:30 in the presence of 1 mM pppGpG and 40 mM MgCl2 in 100 mM CHES pH 9.0, 150 mM NaCl, and 2 mM KCl at 37° C. The analysis of the ligation reaction was performed as described herein. […] This is consistent with the model that pppGpG and the first two nucleotides of RΔΔ together reconstitute the P4 helix. When the ligation reaction with pppGpG was tested in the presence of RΔ instead of RΔΔ, the ligation product A-GG was formed, but with a 10-fold decrease in kobs (squares in FIG. 11). Because RΔ provides an extraneous G nucleotide when combined with pppGpG (see legend of FIG. 11), some disruption in activity is perhaps anticipated. […] This is consistent with the observation that GTP was also not a substrate for the 10DM24-C44T mutant deoxyribozyme.
The ligation reaction of pppGpG was also performed using a variety of pppGpG concentrations with the parent 10DM24 deoxyribozyme in the presence of RΔΔ and 40 mM MgCl2. In FIG. 12, the kobs values are plotted versus [pppGpG] and fit to kobs=kmax·[pppGpG]/(Kd,app+[pppGpG]). The Kd,app for pppGpG was >1 mM.

10DM24 variant = assay: Ligation of ATP as substrate and cofactor with RΔΔ, P4 nucleotides 43 and 44 changed CC→TT; format: biochemical; settings: 20 mM ATP, 150 mM MgCl2, RΔΔ
glmS riboswitch = settings: read-out: Kd,app; cited from earlier work
[5] = test system: mutant 10DM24 deoxyribozyme that has CTTT rather than CCTT in the P4 region; assay: Ligation of pppGpG, second deoxyribozyme nucleotide in P4 mutated C→T; format: biochemical; settings: 1 mM pppGpG, RΔΔ, 40 mM MgCl2
Procedure: as §2

[6] = test system: 10DM24-C44T mutant deoxyribozyme; assay: Ligation of pppGpG, first DNA nucleotide in P4 (nucleotide 44) changed C→T; format: biochemical; settings: 1 mM pppGpG, RΔΔ, 40 mM MgCl2
Procedure: as §2

[7] = enhanced incubation conditions, 3 h

Nc1nc2c(ncn2[C@@H]2O[C@H](COP(=O)(O)OP(=O)(O)OP(=O)(O)O)[C@@H](O)[C@H]2O)c(=O)[nH]1 [GTP, guanosine 5′-triphosphate]
kobs,enh/kobs,std (10DM24 deoxyribozyme [1]; GTP series): 8 | ligation yield %, 3 h (10DM24 deoxyribozyme [1]; [7]): 94% | kobs (10DM24 deoxyribozyme [1]; enhanced incubation conditions: 10 mM NTP, 150 mM MgCl2, 100 mM CHES pH 9.0, 37° C.): 0.26 min⁻¹ and 0.262 min⁻¹ | krel = kobs,NTP*/kobs,NTP (10DM24 deoxyribozyme [1]; enhanced incubation conditions): (1) | Kd (10DM24 deoxyribozyme [1]; from plot of kobs versus [GTP], RΔ, read-out: Kd,app): > 1 mM | ligation yield %, 5 h (10DM24 deoxyribozyme [1]; standard incubation conditions): 94% | kobs (10DM24 deoxyribozyme [1]; standard incubation conditions: 1 mM NTP, 40 mM MgCl2, 100 mM CHES pH 9.0, 150 mM NaCl, 2 mM KCl, 37° C., RΔ): 0.034 min⁻¹ | krel = kobs,NTP*/kobs,NTP (10DM24 deoxyribozyme [1]; standard incubation conditions): (1) | ligation yield %, 5 h ([2]; standard incubation conditions): < 1% | product yield (10DM24 deoxyribozyme [3]; L:E:RΔ=10:1:3, 1 mM GTP, 40 mM MgCl2, 37° C., 5 hours): 50% | turnovers (10DM24 deoxyribozyme [3]; after 5 hours, L in 10-fold excess over deoxyribozyme): 5 | kobs (10DM24 deoxyribozyme [4]; 20 mM GTP + RΔΔ, 150 mM Mg2+): 0.0008 min⁻¹ | reaction products formed (10DM24 deoxyribozyme [4]; RΔΔ cofactor, 20 mM NTP and 150 mM MgCl2, pH 9.0, 37° C.): two reaction products

Nc1ncnc2c1ncn2[C@@H]1O[C@H](COP(=O)(O)OP(=O)(O)OP(=O)(O)O)[C@@H](O)[C@H]1O [ATP]
ligation yield %, 5 h (10DM24 deoxyribozyme [1]; standard incubation conditions): < 1% | kobs,enh/kobs,std ([2]; ATP series): 16 | ligation yield %, 3 h [2, 7]: 82% | kobs ([2]; enhanced incubation conditions: 10 mM NTP, 150 mM MgCl2, pH 9.0, 37° C.): 0.013 min⁻¹ | krel = kobs,NTP*/kobs,NTP ([2]; enhanced incubation conditions): (1) | ligation yield %, 5 h ([2]; standard incubation conditions): 33% | kobs ([2]; standard incubation conditions: 1 mM NTP, 40 mM MgCl2, pH 9.0, 37° C., RΔ, ATP series): 0.0008 min⁻¹ | krel = kobs,NTP*/kobs,NTP ([2]; standard incubation conditions): (1) | ligation product formed (10DM24 variant): a small amount of the ATP ligation product

N[C@H]1C(O)O[C@H](COP(=O)(O)O)[C@@H](O)[C@@H]1O (some centres unmarked) [glucosamine 6-phosphate]
Kd (glmS riboswitch): 200 µM

Nc1nc2c(ncn2[C@@H]2O[C@H](COP(=O)(O)O[C@H]3[C@@H](O)[C@H](n4cnc5c(=O)[nH]c(N)nc54)O[C@@H]3COP(=O)(O)OP(=O)(O)OP(=O)(O)O)[C@@H](O)[C@H]2O)c(=O)[nH]1 [pppGpG]
kobs (10DM24 deoxyribozyme [4]; 1 mM pppGpG + RΔΔ, 40 mM Mg2+): 0.19 min⁻¹ | product formation (10DM24 deoxyribozyme [4]; 1 mM pppGpG, 40 mM MgCl2, in the absence of RΔΔ): no product formation was observed | decrease in kobs (10DM24 deoxyribozyme [4]; in the presence of RΔ instead of RΔΔ): 10 fold | Kd (10DM24 deoxyribozyme [4]; with RΔΔ, 40 mM Mg2+, pH 9.0, 37° C., read-out: Kd,app): > 1 mM | decrease in kobs [5]: 130 fold | product formation [6]: No product formation was observed

Source: patent US20080207885A1, “Method for site-specific labeling of RNA using a deoxyribozyme” (priority 2007, published 2008)
